Data as given in patent publication US9113629B2, “4-amino-6-(4-substituted-phenyl)-picolinates and 6-amino-2-(4-substituted-phenyl)-pyrimidine-4-carboxylates and their use as herbicides” (DOW AGROSCIENCES LLC, priority 2013, dated 2015).

Columns and labels:
[1] = test system: MATSS: scented mayweed (Matricaria chamomilla), pineappleweed (Matricaria matricarioides); test: Post-emergent Test III, herbicidal activity in wheat and barley; assay type: in vivo
Outline: (§1)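 GR20, GR50, GR80 and GR90 come from probit analysis of visual injury scores (0 = none, 100 = complete kill) taken 21 d after treatment. Foliar application was by track sprayer delivering 187 L/ha at five rates, from high down to 1/16×, onto greenhouse plants at the 2–3 leaf stage, with solvent-blank controls.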

[2] = test system: KCHSC: kochia (Kochia scoparia); test: as above; assay type: in vivo
Outline: as §1

[3] = test system: LOLSS: ryegrass including, Italian ryegrass (Lolium multiflorum), rigid ryegrass (Lolium rigidum), annual ryegrass (Lolium multiflorum subsp. Gaudini); test: as above; assay type: in vivo; conditions: probit analysis, 21 days after application
Outline: as §1

LAMSS = test: as above; assay type: in vivo
Outline: as §1

[4] = test system: ALOMY: black-grass (Alopecurus myosuroides); test: as above; assay type: in vivo
Outline: as §1

[5] = test system: SETVI: green foxtail (Setaria viridis); test: as above; assay type: in vivo
Outline: as §1

[6] = test system: HORSS: barley, including spring and winter (Hordeum vulgare); test: as above; assay type: in vivo
Outline: as §1

[7] = test system: APESV: bentgrass (Apera spica-venti); test: as above; assay type: in vivo
Outline: as §1

[8] = test system: TRZSS: wheat, including spring and winter (Triticum aestivum); test: as above; assay type: in vivo
Outline: as §1

[9] = as above; assay type: in vivo, Lolium multiflorum, Lolium rigidum; conditions: Lolium multiflorum, post-emergence, 504 h, read-out: Visual Growth Reduction (%) 21 Days After Application LOLSS
Outline: as §1

[10] = probit analysis, dose for growth reduction of 50 percent, 21 days after application
[11] = probit analysis, dose for growth reduction of 80 percent, 21 days after application
[12] = probit analysis, dose for growth reduction of 20 percent, 21 days after application, crop

Q: For `COC(=O)c1nc(-c2ccc(Br)cc2)c(F)c(N)c1Cl` [Compound 138, Methyl 4-amino-6-(4-bromophenyl)-3-chloro-5-fluoropicolinate], which pest or weed control at 35 g/ha ([1]; Matricaria chamomilla, post-emergence, 504 h, 35 g ai/ha, read-out: Visual Growth Reduction (%) 21 Days After Application MATSS) is on record?
A: Its pest or weed control at 35 g/ha is 60 to 74%.

Q: And the pest or weed control at 70 g/ha ([1]; Matricaria chamomilla, post-emergence, 504 h, 70 g ai/ha, read-out: Visual Growth Reduction (%) 21 Days After Application MATSS)?
A: The pest or weed control at 70 g/ha was 85 to 94%.

Q: What about the pest or weed control at 140 g/ha ([1]; Matricaria chamomilla, post-emergence, 504 h, 140 g ai/ha, read-out: Visual Growth Reduction (%) 21 Days After Application MATSS) of the same compound?
A: The pest or weed control at 140 g/ha was 85 to 94%.

Q: And the “GR50 MATSS” value [1, 10]?
A: The value was 16 g ai/ha.

Q: What about the “GR80 MATSS” value [1, 11] of the same compound?
A: The value was 51 g ai/ha.

Q: And the pest or weed control at 35 g/ha ([2]; Bassia scoparia, post-emergence, 504 h, 35 g ai/ha, read-out: Visual Growth Reduction (%) 21 Days After Application KCHSC)?
A: Its pest or weed control at 35 g/ha is 95 to 100%.

Q: What about the pest or weed control at 70 g/ha ([2]; Bassia scoparia, post-emergence, 504 h, 70 g ai/ha, read-out: Visual Growth Reduction (%) 21 Days After Application KCHSC) of the same compound?
A: The pest or weed control at 70 g/ha was 95 to 100%.

Q: And the pest or weed control at 140 g/ha ([2]; Bassia scoparia, post-emergence, 504 h, 140 g ai/ha, read-out: Visual Growth Reduction (%) 21 Days After Application KCHSC)?
A: Its pest or weed control at 140 g/ha is 95 to 100%.

Q: And the “GR50 KCHSC” value [2, 10]?
A: The value was 1 g ai/ha.

Q: What about the “GR80 KCHSC” value [2, 11] of the same compound?
A: The value was 4 g ai/ha.

Q: And the “GR50 LOLSS” value ([3]; dose for growth reduction of 50 percent)?
A: Its value is 20 g ai/ha.

Q: What about the “GR80 LOLSS” value ([3]; dose for growth reduction of 80 percent) of the same compound?
A: Its value is 66 g ai/ha.

Q: What about the pest or weed control at 35 g/ha (LAMSS; post-emergence, 504 h, 35 g ai/ha, read-out: Visual Growth Reduction (%) 21 Days After Application LAMSS) of the same compound?
A: Its pest or weed control at 35 g/ha is 95 to 100%.

Q: And the pest or weed control at 70 g/ha (LAMSS; post-emergence, 504 h, 70 g ai/ha, read-out: Visual Growth Reduction (%) 21 Days After Application LAMSS)?
A: Its pest or weed control at 70 g/ha is 95 to 100%.

Q: And the pest or weed control at 140 g/ha (LAMSS; post-emergence, 504 h, 140 g ai/ha, read-out: Visual Growth Reduction (%) 21 Days After Application LAMSS)?
A: The pest or weed control at 140 g/ha was 95 to 100%.

Q: And the “GR50 LAMSS” value (LAMSS; [10])?
A: Its value is 1 g ai/ha.

Q: And the “GR80 LAMSS” value (LAMSS; [11])?
A: Its value is 1 g ai/ha.

Q: What about the pest or weed control at 35 g/ha ([4]; Alopecurus myosuroides, post-emergence, 504 h, 35 g ai/ha, read-out: Visual Growth Reduction (%) 21 Days After Application ALOMY) of the same compound?
A: Its pest or weed control at 35 g/ha is 75 to 84%.

Q: And the pest or weed control at 70 g/ha ([4]; Alopecurus myosuroides, post-emergence, 504 h, 70 g ai/ha, read-out: Visual Growth Reduction (%) 21 Days After Application ALOMY)?
A: Its pest or weed control at 70 g/ha is 85 to 94%.

Q: And the pest or weed control at 140 g/ha ([4]; Alopecurus myosuroides, post-emergence, 504 h, 140 g ai/ha, read-out: Visual Growth Reduction (%) 21 Days After Application ALOMY)?
A: Its pest or weed control at 140 g/ha is 95 to 100%.

Q: What about the “GR50 ALOMY” value [4, 10] of the same compound?
A: The value was 11 g ai/ha.

Q: What about the “GR80 ALOMY” value [4, 11] of the same compound?
A: Its value is 30 g ai/ha.

Q: What about the pest or weed control at 35 g/ha ([5]; Setaria viridis, post-emergence, 504 h, 35 g ai/ha, read-out: Visual Growth Reduction (%) 21 Days After Application SETVI) of the same compound?
A: Its pest or weed control at 35 g/ha is 85 to 94%.

Q: And the pest or weed control at 70 g/ha ([5]; Setaria viridis, post-emergence, 504 h, 70 g ai/ha, read-out: Visual Growth Reduction (%) 21 Days After Application SETVI)?
A: The pest or weed control at 70 g/ha was 85 to 94%.

Q: What about the pest or weed control at 140 g/ha ([5]; Setaria viridis, post-emergence, 504 h, 140 g ai/ha, read-out: Visual Growth Reduction (%) 21 Days After Application SETVI) of the same compound?
A: The pest or weed control at 140 g/ha was 95 to 100%.

Q: What about the “GR50 SETVI” value [5, 10] of the same compound?
A: Its value is 8 g ai/ha.

Q: What about the “GR80 SETVI” value [5, 11] of the same compound?
A: The value was 32 g ai/ha.

Q: And the pest or weed control at 35 g/ha ([6]; Hordeum vulgare, post-emergence, 504 h, 35 g ai/ha, read-out: Visual Growth Reduction (%) 21 Days After Application HORSS)?
A: The pest or weed control at 35 g/ha was 85 to 94%.

Q: What about the pest or weed control at 70 g/ha ([6]; Hordeum vulgare, post-emergence, 504 h, 70 g ai/ha, read-out: Visual Growth Reduction (%) 21 Days After Application HORSS) of the same compound?
A: Its pest or weed control at 70 g/ha is 85 to 94%.

Q: And the pest or weed control at 140 g/ha ([6]; Hordeum vulgare, post-emergence, 504 h, 140 g ai/ha, read-out: Visual Growth Reduction (%) 21 Days After Application HORSS)?
A: The pest or weed control at 140 g/ha was 95 to 100%.

Q: And the “GR20 HORSS” value [6, 12]?
A: The value was 1 g ai/ha.

Q: And the pest or weed control at 35 g/ha ([7]; Apera spica-venti, post-emergence, 504 h, 35 g ai/ha, read-out: Visual Growth Reduction (%) 21 Days After Application APESV)?
A: The pest or weed control at 35 g/ha was 85 to 94%.

Q: What about the pest or weed control at 70 g/ha ([7]; Apera spica-venti, post-emergence, 504 h, 70 g ai/ha, read-out: Visual Growth Reduction (%) 21 Days After Application APESV) of the same compound?
A: The pest or weed control at 70 g/ha was 85 to 94%.

Q: What about the pest or weed control at 140 g/ha ([7]; Apera spica-venti, post-emergence, 504 h, 140 g ai/ha, read-out: Visual Growth Reduction (%) 21 Days After Application APESV) of the same compound?
A: Its pest or weed control at 140 g/ha is 95 to 100%.

Q: What about the “GR50 APESV” value [7, 10] of the same compound?
A: Its value is 2 g ai/ha.

Q: And the “GR80 APESV” value [7, 11]?
A: The value was 12 g ai/ha.

Q: What about the pest or weed control at 35 g/ha ([8]; Triticum aestivum, post-emergence, 504 h, 35 g ai/ha, read-out: Visual Growth Reduction (%) 21 Days After Application TRZSS) of the same compound?
A: The pest or weed control at 35 g/ha was 85 to 94%.

Q: What about the pest or weed control at 70 g/ha ([8]; Triticum aestivum, post-emergence, 504 h, 70 g ai/ha, read-out: Visual Growth Reduction (%) 21 Days After Application TRZSS) of the same compound?
A: The pest or weed control at 70 g/ha was 85 to 94%.

Q: What about the pest or weed control at 140 g/ha ([8]; Triticum aestivum, post-emergence, 504 h, 140 g ai/ha, read-out: Visual Growth Reduction (%) 21 Days After Application TRZSS) of the same compound?
A: The pest or weed control at 140 g/ha was 85 to 94%.

Q: What about the “GR20 TRZSS” value [8, 12] of the same compound?
A: The value was 1 g ai/ha.

Q: And the pest or weed control at 35 g/ha ([9]; 35 g ai/ha)?
A: Its pest or weed control at 35 g/ha is 60 to 74%.

Q: What about the pest or weed control at 70 g/ha ([9]; 70 g ai/ha) of the same compound?
A: The pest or weed control at 70 g/ha was 75 to 84%.

Q: And the pest or weed control at 140 g/ha ([9]; 140 g ai/ha)?
A: Its pest or weed control at 140 g/ha is 85 to 94%.
